Assay results as given in paper PMC6864722, “Design and Synthesis of Novel Breast Cancer Therapeutic Drug Candidates Based upon the Hydrophobic Feedback Approach of Antiestrogens” (Molecules, 2019).
“Also recorded” adds a separate entry of the source.

Assays:
[1] = target: T1, human estrogen receptor α (ERα) (Homo sapiens, UniProt P03372); assay: Competitive binding assay using [6,7-3H]17β-estradiol and human recombinant ERα (nitrocellulose filter binding); settings: for RBA (relative binding affinity): binding affinity of E2 taken as 100, estimated from sigmoidal dose-response curves
T1 sequence (P03372 1-595): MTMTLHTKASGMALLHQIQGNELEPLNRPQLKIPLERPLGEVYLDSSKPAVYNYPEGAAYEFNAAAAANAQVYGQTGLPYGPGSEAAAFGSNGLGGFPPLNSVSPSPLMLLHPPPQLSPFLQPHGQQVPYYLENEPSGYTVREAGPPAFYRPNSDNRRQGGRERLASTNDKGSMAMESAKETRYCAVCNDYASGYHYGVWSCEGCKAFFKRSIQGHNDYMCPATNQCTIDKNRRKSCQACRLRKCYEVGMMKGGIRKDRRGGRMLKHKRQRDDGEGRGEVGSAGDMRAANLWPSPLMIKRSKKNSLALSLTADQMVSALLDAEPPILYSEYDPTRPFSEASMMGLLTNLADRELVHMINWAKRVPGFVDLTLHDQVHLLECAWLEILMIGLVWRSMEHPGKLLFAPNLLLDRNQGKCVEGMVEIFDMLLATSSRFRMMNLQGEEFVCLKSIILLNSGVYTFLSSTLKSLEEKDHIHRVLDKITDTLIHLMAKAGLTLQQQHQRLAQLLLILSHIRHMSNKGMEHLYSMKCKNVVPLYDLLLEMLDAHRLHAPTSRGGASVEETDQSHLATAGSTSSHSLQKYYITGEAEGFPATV
Method: The ligand binding activity of human estrogen receptor α (ER α) was determined by a nitrocellulose filter binding assay method. […] Radioactivity that remained in the membrane was measured in Atomlight by using a liquid scintillation counter.
All binding assays were performed in duplicate (n = 2).

[2] = system: MCF-7 cells; assay: MCF-7 cell proliferation assay (WST-8), in the presence or absence of 0.1 nM E2; format: cell-based, human; settings: for EC50: estrogenic activity, absence of E2, four days; for Emax / IC50: MCF7; for Emax: read-out: Emax (maximal efficacy toward cell proliferation); for IC50: proliferation induced by 0.1 nM of E2, read-out: IC50 (inhibition of MCF-7 cell proliferation)
Method: Table 1 summarizes the EC50, IC50, and Emax values estimated from the MCF-7 cell proliferation assays. Emax represents the maximal efficacy of each compound toward cell proliferation and is an index of ER partial agonistic activity. Emax was estimated relative to that of E2, which was taken as 100.
The human breast adenocarcinoma cell line MCF-7 was routinely cultivated in DMEM supplemented with 10% FBS and 100 IU/mL penicillin and […] streptomycin at 37 °C in a 5% CO2 humidified incubator. Before an assay, MCF-7 cells were switched to DMEM (low glucose phenol red-free supplemented with 5% FBS, and 100 IU/mL penicillin and […] streptomycin). Cells were trypsinized from the maintenance dish with phenol red-free trypsin-EDTA and seeded in a 96-well plate at a density of 2000 cells per final volume of 100 μL DMEM supplemented with 5% stripped FBS and 100 IU/mL penicillin and […] streptomycin. After 24 h, the medium was removed and 90 μL of fresh medium and 10 μL of drug solution, supplemented with serial dilutions of test compounds or DMSO as dilute control in the presence or absence of 0.1 nM E2, were added to triplicate microcultures. Cells were incubated for four days. At the end of the incubation time, number of cells was counted by using the WST-8, which was added to microcultures 10 μL each, and they were incubated for 2–4 h. The absorbance at 450 nm was measured. This parameter relates to and number of living cells in the culture.

[3] = system: ER; parameters: method as in PMID 15943468; settings: cited from earlier work
[4] = system: ERα; parameters: method as in doi:10.1351/pac200375091197; settings: cited from earlier work
[5] = system: OVX and ORX mice; parameters: method as in doi:10.1351/pac200375091197; settings: cited from earlier work
[6] = Homo sapiens, relative to E2, taken as 100

Compound	Binding to ERα (in words) [1]	RBA (relative binding affinity) [1] [%]	melting point [°C]	Estrogenic / antiestrogenic activity toward MCF-7 (in words) [2]	EC50 ([2]; Homo sapiens, MCF7, 96 h) [nM]	Emax [2, 6] [%]	further results
[O-][S+]1CC(c2ccc(O)cc2)=C(c2ccc(O)cc2)C1 [4b, 3,4-Bis-(4-hydroxyphenyl)-2,5-dihydrothiophene-1-oxide]	did not bind to the ERα ligand-binding domain (LBD), even at concentrations 1000 times higher than that of E2	0.003	219 to 220	–	–	–	–
3,4-Bis (4-hydroxyphenyl)-2,3,6,7-tetrahydrothiepine [5a]	–	4.9	–	acted as an agonist toward MCF-7 cell proliferation; also recorded: showed estrogenic activity	–	–	EC50 [2]: 48 nM; Emax (maximal efficacy toward cell proliferation) ([2]; relative to E2, taken as 100): 99%
O=S1(=O)CC(c2ccc(O)cc2)=C(c2ccc(O)cc2)C1 [4c, 3,4-Bis-(4-hydroxyphenyl)-2,5-dihydrothiophene-1,1-dioxide]	did not bind to the ERα ligand-binding domain (LBD), even at concentrations 1000 times higher than that of E2	0.04	180.5 to 181	showed estrogenic activity	300	130	–
CC1(C)CC(c2ccc(O)cc2)=C(c2ccc(O)cc2)CC1(C)C [compound 3]	–	–	–	–	–	–	Estrogenic activity (in words) [3]: acted as a partial agonist
O=S1(=O)CCC(c2ccc(O)cc2)=C(c2ccc(O)cc2)CC1 [5c, 4,5-Bis (4-hydroxyphenyl)-2,3,6,7-tetrahydrothiepine-1,1-dioxide]	–	–	–	weak estrogenic activity; also recorded: showed estrogenic activity	4700	89	–
CN(C)CCCOc1ccc(C2=C(c3ccc(O)cc3)CSC2)cc1 [4d, 4-{4-[4-(3-dimethylaminopropoxy)phenyl]-2,5-dihydrothiophen-3-yl}phenol]	–	4.0	177 to 178.5	acted as ER antagonists	–	–	IC50 ([2]; Homo sapiens): 410 nM
1,2-bis(4-hydroxyphenyl)-o-carborane [BE360]	–	–	–	–	–	–	Binding affinity toward ERα (in words) [4]: high binding affinity toward ERα; Estrogenic action in bone and uterus (in words) [5]: estrogenic action in bone without showing estrogenic action in the uterus
Oc1ccc(C2=C(c3ccc(O)cc3)C3CCC2CC3)cc1 [compound 2]	–	–	–	–	–	–	Estrogenic activity (in words) [3]: potent estrogenic activity
CN(C)CCCOc1ccc(C2=C(c3ccc(O)cc3)CCSCC2)cc1 [5d, 4-{5-[4-(3-Dimethylaminopropoxy)phenyl]-2,3,6,7-tetrahydrothiepin-4-yl}phenol]	–	–	–	acted as ER antagonists	–	–	IC50 ([2]; Homo sapiens): 90 nM
Oc1ccc(C2=C(c3ccc(O)cc3)CSC2)cc1 [4a, 3,4-Bis-(4-hydroxyphenyl)-2,5-dihydrothiophene]	moderately bound to ERα	–	–	showed estrogenic activity	390	119	Binding affinity, times lower than that of E2 [1]: about 100 times
